≈ marks a conversion by molar mass, not a printed value.
settings: buffer; pH 7.4; 200.0 µM

| Compound | solubility kinetic [µg/mL] |
| --- | --- |
| O=C(OCc1ccccc1)c1cnc(Cl)c(Cl)c1 | 2.1 (≈ 7.44 µM) |
| CCOC(=O)C1=C(C)NC(SC)=C(C#N)C1CC(C)C (stereo not given) | 2.3 (≈ 7.81 µM) |
| CC(C)n1cc(NC(=O)COc2ccccc2Cl)cn1 | > 44.1 |
| O=C(COC(=O)CNS(=O)(=O)c1cc(C(F)(F)F)ccc1Cl)NC1CC1 | > 62.2 |
| O=[N+]([O-])c1cccnc1N1CCCNCC1 | 30.4 (≈ 137 µM) |
| Cc1[nH]c(C(=O)O)c(C#N)c1C(=O)c1ccccc1 | > 38.1 |
| O=C(CNC(=O)c1ccc(Br)o1)NCc1ccccc1 | > 50.6 |
| O=C1CC(c2ccccc2F)c2c(c3ccccc3[nH]c2=O)O1 (stereo not given) | 11.4 (≈ 36.9 µM) |
| CC1CN(C(=O)COC(=O)c2c(Cl)cccc2Cl)CC(C)O1 (stereo not given) | 49.5 (≈ 143 µM) |
| CCNC(=O)COC(=O)/C=C/c1cccs1 | > 35.9 |
| Cc1cc(C=O)c(C)n1-c1ccc2c(c1)OCO2 | 24.6 (≈ 101 µM) |
| NC(=O)C1CCN(C(=O)c2ccc3ccccc3c2)CC1 | > 42.4 |
| O=C(CN1CCC(NC(=O)C2CCCCC2)CC1)Nc1cccc(F)c1 | 18.4 (≈ 50.9 µM) |
| Cc1ccc(NC(=S)NCCc2ccccc2)nc1 | < 0.2 |
| CC(C)(C)c1csc(CS(=O)(=O)c2ccccn2)n1 | > 44.5 |
| CC1CCCC(NC(=O)CN2C(=O)COc3ccccc32)C1C (stereo not given) | 6.4 (≈ 20.2 µM) |
| O=C(Cn1c(CO)nc2ccccc21)NCCc1ccc(F)cc1 | 36.7 (≈ 112 µM) |
| Nc1ccc(C(=O)C(=O)c2ccccc2)cc1 | > 33.8 |
| CCCCCc1nnc(NC(=O)c2ccc(=O)n(C)n2)s1 | > 46.1 |
| Cc1cccc(NC(=O)/C(C#N)=C/c2ccc(F)cc2)n1 | 1.5 (≈ 5.33 µM) |

| Compound | solubility kinetic [µg/mL] |
| --- | --- |
| CCOCC(=O)Nc1cc(C)on1 | 22.8 (≈ 124 µM) |
| COc1ccc(NS(=O)(=O)c2cccc(C(=O)OCC(=O)c3c(N)n(C)c(=O)n(C)c3=O)c2)cc1 | 16.4 (≈ 32.6 µM) |
| CN(C(=O)CSc1nnc(C2CC2)n1C1CC1)C1(C#N)CCCCC1 | > 53.9 |
| CC(=O)Nc1ccc(-n2c(C)ccc2C)cc1 | > 34.2 |
| Cc1cccc(C)c1NC(=O)Cc1cccs1 | > 36.8 |
| COc1ccc(CCNC(=O)COC(=O)c2cncc(Br)c2)cc1OC | > 63.5 |
| N#Cc1cccc2cccc(S(=O)(=O)N3CCOCC3)c12 | 14.9 (≈ 49.3 µM) |
| CC1(C)CC(=O)C(C(O)c2ccc([N+](=O)[O-])cc2)C(C)(C)N1 (stereo not given) | 39.9 (≈ 130 µM) |
| COc1ccc(-c2nc(N)ncc2-c2ccccc2OC)c(O)c1 | 23.3 (≈ 72.1 µM) |
| COc1ccc(OCC(O)CN2CCNCC2)cc1.Cl (stereo not given) | 49.5 |
| Cc1cccc(C)c1N1CCN(c2c(C)cccc2C)CC1 | < 0.3 |
| N#Cc1ccccc1S(=O)(=O)N1CCN(C(=O)C2CCCCC2)CC1 | > 54.2 |
| CCCOc1ccc2nc(C)c(CCC)c(SC(=N)N)c2c1.Cl | 33 |
| CC(=O)Nc1ccc(NC(=O)c2ccc(Cl)nc2)cc1 | > 43.5 |
| COc1cc([N+](=O)[O-])ccc1NC(=S)N1CCN(c2ccccn2)CC1 | 12.2 (≈ 32.7 µM) |
| Nc1ncnc(Nc2ccc(F)c(Cl)c2)n1 | 8.4 (≈ 35.1 µM) |
| CC(C)CN1CCN(Cc2cccc3c2OCO3)CC1CCO (stereo not given) | > 48.1 |
| O=C(NCC(c1cccs1)N1CCc2ccccc21)c1ccccc1 (stereo not given) | < 0.4 |
| O=C(c1cc(F)ccc1F)C1CCCN(Cc2cccc(Cl)c2)C1 (stereo not given) | 2.1 (≈ 6 µM) |
| O=C(COc1ccccc1)NC1CCCCCCC1 | 36.2 (≈ 139 µM) |

| Compound | solubility kinetic [µg/mL] |
| --- | --- |
| COc1ccc(C(=O)O/N=C(\N)c2ccccc2)cc1OC | 23.8 (≈ 79.3 µM) |
| CCOc1ccc(NS(=O)(=O)c2ccc3[nH]c(=O)[nH]c3c2)cc1 | 2 (≈ 6 µM) |
| COc1ccc(N2CCN(C(=O)c3cccc(S(=O)(=O)N4CCc5ccccc54)c3)CC2)cc1 | 7.1 (≈ 14.9 µM) |
| CC(=O)Cn1ncc(N2CCOCC2)c(Br)c1=O | > 47.4 |
| CCOc1ccccc1Nc1nnc(SCC(=O)NCC2CCCO2)s1 (stereo not given) | > 59.2 |
| O=C(Nc1cccc(S(=O)(=O)N2CCCCC2)c1)c1ccccn1 | 5.1 (≈ 14.8 µM) |
| CC(=O)Oc1ccc(-c2ccc(C(=O)OCC(=O)c3c(N)n(C)c(=O)n(C)c3=O)cc2)cc1 | 3.2 (≈ 7.09 µM) |
| CC1c2ccsc2CCN1C(=O)NC(=O)c1ccc(Cl)cc1 (stereo not given) | 1.8 (≈ 5.38 µM) |
| O=C(CSc1ccccc1C(=O)O)NCC1CCCCC1 | 44.2 (≈ 144 µM) |
| CC(C)(C)C(=O)Nc1cc2c3c(c1)CCN3C(=O)CC2 | > 40.9 |
| O=C(NCc1cccnc1)c1ccccc1NC(=O)c1c(F)cccc1F | > 55.1 |
| O=C(NCc1cccnc1)c1ccc([N+](=O)[O-])cc1 | > 38.6 |
| CN(C)S(=O)(=O)c1cccc(NC(=O)COC(=O)c2ccc3ccccc3n2)c1 | 40 (≈ 96.7 µM) |
| Cc1ccc(OCC(=O)Nc2ccc(Cl)cc2)c([N+](=O)[O-])n1 | 8.7 (≈ 27 µM) |
| O=c1[nH]c(=O)n(CC2CCCO2)c(O)c1/C=C1\C=Nc2ccccc21 (stereo not given) | > 50.9 |
| COc1cc(NC(=O)C2CCN(c3cnccn3)CC2)cc(OC)c1 | 47.1 (≈ 138 µM) |
| CN(C)CCNc1ncnc2sc(-c3ccccc3)cc12 | 39.7 (≈ 133 µM) |
| COc1ccc(NC2(c3ccccc3)OC(=O)c3ccccc32)cc1 (stereo not given) | 1.5 (≈ 4.53 µM) |
| Cc1nc2ccccc2nc1Nc1cccc(Cl)c1 | 20.2 (≈ 74.9 µM) |
| COc1ccc(S(=O)(=O)N2CCN3CCCC3C2)cc1 (stereo not given) | 41.8 (≈ 141 µM) |
